Laboratory results from EP0908457B1, “3-(1,2-benzisothiazol- and isoxazol-5-Y1)-2,4(1H,3H)-pyrimidinedione or thione and 3-(1,2-benzisothiazol- and isoxazol-5-y1)-4(3H)-pyrimidinone or thione herbicidal agents” (BASF AKTIENGESELLSCHAFT, priority 1997, dated 1999).

How the values were obtained:
[1] = test system: Echinochloa oryzoides (Ard.) Fritsch.; experiment: Preemergence weed control under flooded paddy conditions, ECHORC (Watergrass (Calif.)); format: in vivo; conditions: flooded paddy, rated three to four weeks after treatment; for herbicidal effect rating, ECHORC: preemergence weeds; for ECHORC herbicidal rating: preemergence; for herbicidal effect rating, ECHORC: meaning of each grade not given here
Cyperus iria = experiment: Preemergence weed control under flooded paddy conditions, CYPIR (Rice Flatsedge); format: in vivo; conditions: flooded paddy, rated three to four weeks after treatment; for herbicidal effect rating, CYPIR: preemergence weeds; for CYPIR herbicidal rating: preemergence; for herbicidal effect rating, CYPIR: meaning of each grade not given here
[2] = test system: Cyperus serotinus, Rottb.; experiment: Preemergence weed control under flooded paddy conditions, CYPSE (Flatsedge); format: in vivo; conditions: rated three to four weeks after treatment; for herbicidal effect rating, CYPSE: preemergence weeds; for CYPSE herbicidal rating: preemergence; for herbicidal effect rating, CYPSE: meaning of each grade not given here
[3] = test system: Monochoria vaginalis, Presl.; experiment: Preemergence weed control under flooded paddy conditions, MOOVA (Monochoria); format: in vivo; conditions: flooded paddy, rated three to four weeks after treatment; for herbicidal effect rating, MOOVA: preemergence weeds; for MOOVA herbicidal rating: preemergence; for herbicidal effect rating, MOOVA: meaning of each grade not given here
Sagittaria pygmaea, L. = experiment: Preemergence weed control under flooded paddy conditions, SAGPY (Arrowhead (Pygmaea)); format: in vivo; conditions: flooded paddy, rated three to four weeks after treatment; for herbicidal effect rating, SAGPY: preemergence weeds; for SAGPY herbicidal rating: preemergence; for herbicidal effect rating, SAGPY: meaning of each grade not given here
[4] = test system: Oryza sativa, (L.) Tebonnet; experiment: Rice tolerance to post-transplant applications under flooded paddy conditions (Example 187), ORYSAT (Rice, Tebonnet); conditions: rated three to four weeks after treatment

CCc1nsc2ccc(-n3c(=O)cc(C(F)(F)F)n(C)c3=O)cc12 [Example 119, 3-(3-Ethyl-1,2-benzisothiazol-5-yl)-1-methyl-6-(trifluoromethyl)-2,4(1H,3H)-pyrimidinedione]
herbicidal effect rating, ECHORC ([1]; 0.0313 kg/ha): 4.0 | herbicidal effect rating, ECHORC ([1]; 0.0625 kg/ha): 9.0 | herbicidal effect rating, ECHORC ([1]; 0.1250 kg/ha): 9.0 | herbicidal effect rating, ECHORC ([1]; 0.2500 kg/ha): 9.0 | herbicidal effect rating, CYPIR (Cyperus iria; 0.0313 kg/ha): 9.0 | herbicidal effect rating, CYPIR (Cyperus iria; 0.0625 kg/ha): 9.0 | herbicidal effect rating, CYPIR (Cyperus iria; 0.1250 kg/ha): 9.0 | herbicidal effect rating, CYPIR (Cyperus iria; 0.2500 kg/ha): 9.0 | herbicidal effect rating, CYPSE ([2]; 0.0313 kg/ha): 2.0 | herbicidal effect rating, CYPSE ([2]; 0.0625 kg/ha): 4.0 | herbicidal effect rating, CYPSE ([2]; 0.1250 kg/ha): 8.0 | herbicidal effect rating, CYPSE ([2]; 0.2500 kg/ha): 9.0 | herbicidal effect rating, MOOVA ([3]; 0.0313 kg/ha): 9.0 | herbicidal effect rating, MOOVA ([3]; 0.0625 kg/ha): 9.0 | herbicidal effect rating, MOOVA ([3]; 0.1250 kg/ha): 9.0 | herbicidal effect rating, MOOVA ([3]; 0.2500 kg/ha): 9.0 | herbicidal effect rating, SAGPY (Sagittaria pygmaea, L.; 0.0313 kg/ha): 6.0 | herbicidal effect rating, SAGPY (Sagittaria pygmaea, L.; 0.0625 kg/ha): 8.0 | herbicidal effect rating, SAGPY (Sagittaria pygmaea, L.; 0.1250 kg/ha): 8.0 | herbicidal effect rating, SAGPY (Sagittaria pygmaea, L.; 0.2500 kg/ha): 9.0 | herbicidal effect rating, ORYSAT (rice tolerance) ([4]; 0.0313 kg/ha): 7.0 | herbicidal effect rating, ORYSAT (rice tolerance) ([4]; 0.0625 kg/ha): 8.0 | herbicidal effect rating, ORYSAT (rice tolerance) ([4]; 0.1250 kg/ha): 9.0 | herbicidal effect rating, ORYSAT (rice tolerance) ([4]; 0.2500 kg/ha): 9.0

COC(=O)COc1cccc(-c2nsc3ccc(-n4c(=O)cc(C(F)(F)F)n(C)c4=O)cc23)c1 [Example 332, Acetic acid, {m-{5-[3,6-dihydro-3-methyl-2,6-dioxo-4-(trifluoromethyl)-1(2H)-pyrimidinyl]-1,2-benzisothiazol-3-yl}phenoxy}-, methyl ester]
herbicidal effect rating, ECHORC ([1]; Rate 0.0320 kg/ha): 6.5 | herbicidal effect rating, ECHORC ([1]; Rate 0.0620 kg/ha): 8.5 | herbicidal effect rating, ECHORC ([1]; Rate 0.1250 kg/ha): 9.0 | herbicidal effect rating, ECHORC ([1]; Rate 0.2500 kg/ha): 9.0 | herbicidal effect rating, CYPIR (Cyperus iria; Rate 0.0320 kg/ha): 9.0 | herbicidal effect rating, CYPIR (Cyperus iria; Rate 0.0620 kg/ha): 9.0 | herbicidal effect rating, CYPIR (Cyperus iria; Rate 0.1250 kg/ha): 9.0 | herbicidal effect rating, CYPIR (Cyperus iria; Rate 0.2500 kg/ha): 9.0 | herbicidal effect rating, CYPSE ([2]; Rate 0.0320 kg/ha): 4.0 | herbicidal effect rating, CYPSE ([2]; Rate 0.0620 kg/ha): 4.5 | herbicidal effect rating, CYPSE ([2]; Rate 0.1250 kg/ha): 4.5 | herbicidal effect rating, CYPSE ([2]; Rate 0.2500 kg/ha): 7.5 | herbicidal effect rating, MOOVA ([3]; Rate 0.0320 kg/ha): 9.0 | herbicidal effect rating, MOOVA ([3]; Rate 0.0620 kg/ha): 9.0 | herbicidal effect rating, MOOVA ([3]; Rate 0.1250 kg/ha): 9.0 | herbicidal effect rating, MOOVA ([3]; Rate 0.2500 kg/ha): 9.0 | herbicidal effect rating, SAGPY (Sagittaria pygmaea, L.; Rate 0.0320 kg/ha): 3.0 | herbicidal effect rating, SAGPY (Sagittaria pygmaea, L.; Rate 0.0620 kg/ha): 3.5 | herbicidal effect rating, SAGPY (Sagittaria pygmaea, L.; Rate 0.1250 kg/ha): 6.5 | herbicidal effect rating, SAGPY (Sagittaria pygmaea, L.; Rate 0.2500 kg/ha): 9.0 | herbicidal effect rating ORYSAT ([4]; Rate 0.0320 kg/ha): 5.5 | herbicidal effect rating ORYSAT ([4]; Rate 0.0620 kg/ha): 5.5 | herbicidal effect rating ORYSAT ([4]; Rate 0.1250 kg/ha): 5.5 | herbicidal effect rating ORYSAT ([4]; Rate 0.2500 kg/ha): 7.5

COc1cc(Cl)c(C)cc1-c1nsc2ccc(-n3c(=O)cc(C(F)(F)F)n(C)c3=O)cc12 [Example 506, 2,4(1H,3H)-Pyrimidinedione, 3-[3-(4-chloro-6-methoxy-m-tolyl)-1,2-benzisothiazol-5-yl]-1-methyl-6-(trifluoromethyl)-]
ECHORC herbicidal rating ([1]; 0.0320 kg/ha): 7.5 | ECHORC herbicidal rating ([1]; 0.0620 kg/ha): 9.0 | ECHORC herbicidal rating ([1]; 0.1250 kg/ha): 9.0 | ECHORC herbicidal rating ([1]; 0.2500 kg/ha): 9.0 | CYPIR herbicidal rating (Cyperus iria; 0.0320 kg/ha): 6.5 | CYPIR herbicidal rating (Cyperus iria; 0.0620 kg/ha): 8.0 | CYPIR herbicidal rating (Cyperus iria; 0.1250 kg/ha): 9.0 | CYPIR herbicidal rating (Cyperus iria; 0.2500 kg/ha): 9.0 | CYPSE herbicidal rating ([2]; 0.0320 kg/ha): 4.5 | CYPSE herbicidal rating ([2]; 0.0620 kg/ha): 4.5 | CYPSE herbicidal rating ([2]; 0.1250 kg/ha): 4.5 | CYPSE herbicidal rating ([2]; 0.2500 kg/ha): 7.0 | MOOVA herbicidal rating ([3]; 0.0320 kg/ha): 8.0 | MOOVA herbicidal rating ([3]; 0.0620 kg/ha): 9.0 | MOOVA herbicidal rating ([3]; 0.1250 kg/ha): 9.0 | MOOVA herbicidal rating ([3]; 0.2500 kg/ha): 9.0 | SAGPY herbicidal rating (Sagittaria pygmaea, L.; 0.0320 kg/ha): 2.5 | SAGPY herbicidal rating (Sagittaria pygmaea, L.; 0.0620 kg/ha): 3.0 | SAGPY herbicidal rating (Sagittaria pygmaea, L.; 0.1250 kg/ha): 3.0 | SAGPY herbicidal rating (Sagittaria pygmaea, L.; 0.2500 kg/ha): 4.5 | ORYSAT herbicidal rating (rice tolerance) ([4]; 0.0320 kg/ha): 1.5 | ORYSAT herbicidal rating (rice tolerance) ([4]; 0.0620 kg/ha): 1.5 | ORYSAT herbicidal rating (rice tolerance) ([4]; 0.1250 kg/ha): 1.5 | ORYSAT herbicidal rating (rice tolerance) ([4]; 0.2500 kg/ha): 2.0
